Assay results reported in PMC4967898, “Peptides interfering with protein-protein interactions in the ethylene signaling pathway delay tomato fruit ripening” (Scientific Reports, 2016).
Entries after “also recorded” stand apart in the source; their conditions may differ.

Tests used:
[1] = tested on: green, immature tomato fruits; test: Tomato fruit ripening after inhibitor treatment; format: in vivo, tomato (Solanum pimpinellifolium)
From the text: To further investigate the potential of NOP-1 for agricultural applications, we tested the effect of the NOP-1 peptide on tomato fruit ripening in comparison to other known inhibitors of ethylene responses. To this end we tested […] (MCP) and aminoethoxyvinylglycine (AVG). MCP is a known inhibitor of ethylene signaling blocking ethylene binding at the receptor proteins, whereas AVG blocks ethylene production in the plant by competitive inhibition of ACC synthases. To monitor inhibition of the fruit ripening process, we treated green, immature tomato fruits with 200 μM NOP-1, MCP or AVG, respectively and documented the fruit ripening process for 20 days. Figure 3 compares the effect of the different inhibitor treatments on tomato fruits to controls lacking the inhibitory treatment that contain either buffer alone or a random sequence control peptide (ROP-1). […] The bioassays underline the high inhibitory potential of NOP-1 on the ripening process compared to the well-known and efficient inhibitors of ethylene responses.
Inhibitor-treatment of tomato fruits
Aminoethoxyvinyl glycine (AVG) was purchased from Sigma-Aldrich, St Louis, MO (purity ~95%). SmartFresh^SM (AgroFresh, Spring House, PA) was used as sugar-based powder formulation of 1-MCP. Concentration of 1-MCP was calculated according to the percentage of active ingredient (0.14%) and release from the SmartFresh^SM powder. For comparison concentration of all inhibitors are expressed in terms of molarity. For treatment of tomato fruits with NOP-1, AVG and MCP, inhibitors were dissolved in the FRET buffer described in the previous section to a final concentration of 200 μM. Green tomato fruits (Solanum pimpinellifolium) from the same estimated developmental stage were harvested from the panicle and water-cleaned. 300 μL of the inhibitor solution was applied onto the tomato surface with a brush and the fruits were air-dried for 30 min. As an alternative application, tomato fruits were plunged into 2 mL of the inhibitor solution and incubated for 30 min in this solution or 200 μL of the peptide-containing solution were carefully injected into the tomato tissue by a hypodermic syringe. Three individual tomato fruits were treated for the different applications of the peptide in order to document the ripening process. After inhibitor-treatment tomato fruits were transferred to a vial closed with aluminum foil and stored in the dark at room temperature. Maturation process was documented every second day for at least 20 days. For measurement of ethylene production, green tomato fruits were treated as described above.

NOP-1 stability by LC/MS = format: physicochemical; conditions: NOP-1 500 µg in 100 µl PBS pH 6.7, 0, 5, 10 and 15 days, room temperature; Supelcosil C18, 215 nm; identity by mass spectrometry
Method: Figure S4: Analysis of NOP-1 stability by liquid chromatography (LC).
Lyophilized NOP-1 (500 µg) was dissolved in 100 µl PBS pH 6.7, incubated for 0 days, 5 days, 10 days and 15 days at room temperatures and then applied to a Supelcosil C18 column (4.6x150 mm). The column was washed with 15 ml H2O with 0.1% TFA (buffer A).
Elution was performed with a linear gradient to 100% buffer B (100% acetonitrile with 0.1% TFA) over 30 min at a flow rate of 1 ml min-1. Detection was set to 215 nm. Identity of the peptide was confirmed by mass spectrometry. […]

living plants = conditions: cited from earlier work

For `CC(C)C[C@H](NC(=O)[C@H](CCCNC(=N)N)NC(=O)[C@H](CCCNC(=N)N)NC(=O)[C@H](CCCCN)NC(=O)[C@H](Cc1ccc(O)cc1)NC(=O)[C@H](CCCNC(=N)N)NC(=O)[C@H](CCCCN)NC(=O)[C@@H](N)CC(C)C)C(N)=O` [NOP-1, LKRYKRRL-NH2], the “delay in fruit ripening (Fig. 3c)” value ([1]; 200 μM, surface-treated, incubated or injected, versus untreated fruits) was “at least 5 days”, the “delay in maturation of tomato fruits” value ([1]; 200 μM, all tested inhibitors and all applications of NOP-1 (injection, incubation, surface application), documented for 20 days, three fruits per application) was 10 to 15 days and the “delay in maturation by application form (in words)” value ([1]; 200 μM, surface application compared with incubation and injection) was “Delay in maturation process is most evident for fruit surface application”. For the same compound, the “effect on tomato fruit ripening (in words)” value ([1]; compared with buffer or untreated control, inhibitors at 200 μM) was “delays ripening similar to known inhibitors of ethylene perception (MCP) and ethylene biosynthesis (AVG)”, the “penetration of fruit surface / uptake (in words)” value ([1]; inferred from ripening delay after surface application, 200 μM) was “can easily penetrate the surface tissue of the tomatoes and is taken up by the fruits; also recorded: seems to penetrate the exocarp and is taken up by the fruits” and the “delay in ripening by injection (in words)” value ([1]; injection into the fruits, initial experiments) was “less pronounced delay in ripening”. The “delay in fruit ripening (Fig. 3a)” value ([1]; surface-treated, 200 μM, versus untreated control fruits) was “at least 15 days”, the “stability of the peptide” value (NOP-1 stability by LC/MS) was “stable for several days at room temperature under normal conditions” and the “inhibition of ethylene responses in living plants” value (living plants) was “potent inhibitor of ethylene responses in living plants”.
